Test results: patent publication US11045519B2, “Arginine-rich polypeptide compositions and methods of using same” (UNM Rainforest Innovations, priority 2017, dated 2021)

Assays:
HPV16 PsVs [1] = experiment: Post-attachment and time-course HPV16 PsV infection of HaCaT cells; format: cell-based
Procedure: FIG. 6. PolyR inhibits HPV16 PsV infection at pre-attachment and post-attachment stages. (A) Infection of HaCaT cells with HPV16. Semi-confluent HaCaT cells were left untreated with polyR (H16) or exposed to HPV16 PsV 1 h before (polyR/H16) or one hour after […] (H16/PolyR) treatment, were subjected to infectivity measurements after a 24-hour incubation at 37° C. (as described in FIG. 1). (B) Time-course experiments of HPV infection in the absence or presence of polyR. Untreated control cells were infected with HPV16 PsV (HPV16). HaCaT cells were treated with 1 μM polyR before (+1 h polyR/HPV16), concurrently (0 h polyR/HPV16) or at one hour, two hours, four hours, six hours, or eight hours post-attachment of HPV16 PsVs. Infection was scored at 24 hours post HPV attachment and shift to 37° C.
FIG. 18. PrS post-attachment effect on HPV infection. HaCaT cell were incubated with 500 vge/cell HPV PsVs at RT for one hour before addition of 1.5 μM PrS complexed with 0.1% HMW HA or with 3 μM LMW HA. Infection scored 24 after infection as described in FIG. 12.
FIG. 20. Time-course experiments of HPV infection in the presence of PrS or HA:PrS complex. (A) PrS; (B) HA:PrS complex. HaCaT cells were treated with 2 μM PrS or 2 μM PrS associated with 0.1% HMW HA at indicated times post-attachment of HPV16 PsVs, and infection was scored 24 hours after infection as described in FIG. 12. Time-point zero represents initial PsV inoculation.
The data above show clearly that polyR can inhibit HPV binding to cells and infection, but that polyR cannot displace HPV after bound to cells. To determine whether polyR can alter HPV infectivity if it is present after HPV is bound to cells, the infection levels of virus-exposed cells that are either pre-treated with polyR before virus binding, polyR-treated after HPV binding, or untreated with polyR were compared. […] This indicates a second mechanism whereby polyR can block HPV infection after virus is bound to cells.
Next, the effectiveness of polyR treatment in blocking infection when added at increasing times post HPV binding to cells was tested. This time-course experiment confirmed that polyR affects post-attachment stages of virus infection. HaCaT cells were treated with polyR one hour prior to virus exposure, concurrently with virus exposure, and at increasing times after virus was bound and unbound virus was removed. Infection efficiency was measured after a 24-hour incubation at 37° C. The cells infected with HPV16 PsV in the absence of polyR (FIG. 6B, HPV16) was considered as 100% infection efficiency.
To investigate PrS post-attachment effect on infection, HaCaT cell were exposed with HPV PsVs at room temperature for one hour before addition of PrS complexed with heavy molecular weight (HMW) HA or with low molecular weight (LMW) HA.
Time-course experiments in which HaCaT cells were exposed to PrS or PrS:HA complex at various times after attachment with HPV16 PsVs confirmation this mechanism.

HPV16 PsVs [2] = experiment: Co-localization of HPV16 PsV with endosomal marker CD63 in HaCaT cells (confocal microscopy); format: cell-based; settings: 1 μM added 1 h after PsVs, further 7 h
Procedure: FIG. 9. PolyR inhibits HPV16 L2 protein cleavage by furin and induces accumulation of internalized virus particles in late endosomal fraction. (A) Equal amount of HPV16 diluted in 50 μl furin assay buffer (1 mM CaCl2), 100 mM HEPES, 0.5% Triton X-100, 1 mM β-mercaptoethanol) was loaded into six tubes, and subsequently incubated for two hours at 30° C. without any inhibitor, in the presence of 1.3 μM furin inhibitor1 (Merck Millipore Corp., Burlington, Mass.), or 1 μM polyR. Samples were mixed with SDS-PAGE sample buffer and boiled before fractionation on 9% gel. Proteins were transferred onto PVDF membranes and after blocking, incubated with affinity-purified rabbit anti-HPV16 polyclonal antibody. Secondary donkey anti-rabbit horseradish peroxidase-coupled antibody was used for detection of HPV16 capsid proteins. (B) HaCaT cells grown on coverslips were incubated with HPV16 PsVs for one hour at 37° C. to initiate virus binding (and partial internalization) before adding 1 μM polyR and further incubated for seven hours. After the incubation, cells were fixed and stained for HPV16 and endogenous CD63, using primary anti-HPV16 rabbit polyclonal and anti-CD63 mouse monoclonal antibodies (Santa Cruz Biotechnology, Inc., Dallas, Tex.). […]

Q: For poly-L-arginine [polyR], which “inhibition of HPV16 infection” value (HPV16 PsVs [1]; 1 μM, added 1 h before virus exposure) is on record?
A: > 95%

Q: What about the “inhibition of HPV16 infection” value (HPV16 PsVs [1]; 1 μM, added 1 h to 2 h post HPV binding) of the same substance?
A: Strong infection inhibition

Q: What about the “reduction in HPV infection” value (HPV16 PsVs [1]; 1 μM, added 4 h post infection) of the same substance?
A: approximately 75%

Q: What about the “inhibition of HPV16 infection” value (HPV16 PsVs [1]; 1 μM, added 6 h to 8 h post infection) of the same substance?
A: Only mild inhibition

Q: What about the “inhibition of HPV16 infection” value (HPV16 PsVs [1]; 1 μM, added simultaneously with HPV (0 h)) of the same substance?
A: same magnitude of infection inhibition

Q: And the “inhibition of infection when added after virus binding versus before” value (HPV16 PsVs [1]; 2 μM, 1 h after versus 1 h before HPV16 PsV, 24 h)?
A: as effective at inhibiting HPV infection when added after virus was bound to cells as it was when added prior to virus exposure

Q: And the “co-localization of HPV16 and CD63” value (HPV16 PsVs [2])?
A: significantly increased co-localization of HPV16 and CD63
